#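 Five compound concentrations were applied to cells in 96-well plates for 48 hours; endpoints were derived by simple linear interpolation of the resulting dose-response curve. The concentration for 50% growth inhibition is given as GI50.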 Activity calls are given as the source filed them. Rule as the data show it: active = GI50 up to about 1.1 µM and inactive = higher.
# Experiments:
# Assay in all cases: inhibition of tumour cell growth, NCI panel, 48 h
# SF-268 = test system: SF-268
# BT-549 = test system: BT-549
# SK-MEL-28 = test system: SK-MEL-28
# SK-OV-3 = test system: SK-OV-3
# NCI-H23 = test system: NCI-H23
# SK-MEL-5 = test system: SK-MEL-5
# UACC-257 = test system: UACC-257
# MDA-MB-231 = test system: MDA-MB-231
# HOP-62 = test system: HOP-62
# HOP-92 = test system: HOP-92
# M14 = test system: M14
# LOX IMVI = test system: LOX IMVI
# CCRF-CEM = test system: CCRF-CEM
# MCF7 = test system: MCF7
# NCI-H226 = test system: NCI-H226
# 786-0 = test system: 786-0
# TK-10 = test system: TK-10
# DU-145 = test system: DU-145
# COLO 205 = test system: COLO 205
# MDA-N = test system: MDA-N
# RPMI-8226 = test system: RPMI-8226
# ACHN = test system: ACHN
# Malme-3M = test system: Malme-3M
# UACC-62 = test system: UACC-62
# OVCAR-8 = test system: OVCAR-8
# NCI/ADR-RES = test system: NCI/ADR-RES
# EKVX = test system: EKVX
# SK-MEL-2 = test system: SK-MEL-2
# Hs-578T = test system: Hs-578T
# A498 = test system: A498
# HL-60 = test system: HL-60
# OVCAR-3 = test system: OVCAR-3
# MOLT-4 = test system: MOLT-4
# SNB-19 = test system: SNB-19
# CAKI-1 = test system: CAKI-1
# SF-295 = test system: SF-295
# OVCAR-5 = test system: OVCAR-5
# NCI-H460 = test system: NCI-H460
# RXF 393 = test system: RXF 393
# OVCAR-4 = test system: OVCAR-4
# U-251 = test system: U-251
# IGROV-1 = test system: IGROV-1
# KM12 = test system: KM12
# MDA-MB-435 = test system: MDA-MB-435
# SW-620 = test system: SW-620
# A549 = test system: A549
# HCT-15 = test system: HCT-15
# SNB-75 = test system: SNB-75
# K562 = test system: K562
# SF-539 = test system: SF-539
# UO-31 = test system: UO-31
# SN12C = test system: SN12C
# T47D = test system: T47D
# HCT-116 = test system: HCT-116
# HT-29 = test system: HT-29
# HCC 2998 = test system: HCC 2998
# SR = test system: SR
# NCI-H522 = test system: NCI-H522
# PC-3 = test system: PC-3
compound,measurement,setting,value
Cn1nc2ccc([N+](=O)[O-])c(Cn3nnc4ccccc43)c2n1,GI50,SF-268,> 100 µM (inactive)
same,GI50,BT-549,> 100 µM (inactive)
same,GI50,SK-MEL-28,> 100 µM (inactive)
same,GI50,SK-OV-3,> 100 µM (inactive)
same,GI50,NCI-H23,> 100 µM (inactive)
same,GI50,SK-MEL-5,79.4 µM (inactive)
same,GI50,UACC-257,> 100 µM (inactive)
same,GI50,MDA-MB-231,> 100 µM (inactive)
same,GI50,HOP-62,> 100 µM (inactive)
same,GI50,HOP-92,> 100 µM (inactive)
same,GI50,M14,> 100 µM (inactive)
same,GI50,LOX IMVI,82.8 µM (inactive)
same,GI50,CCRF-CEM,> 100 µM (inactive)
same,GI50,MCF7,> 100 µM (inactive)
same,GI50,NCI-H226,> 100 µM (inactive)
same,GI50,786-0,> 100 µM (inactive)
same,GI50,TK-10,> 100 µM (inactive)
same,GI50,DU-145,> 100 µM (inactive)
same,GI50,COLO 205,> 100 µM (inactive)
same,GI50,MDA-N,88.3 µM (inactive)
same,GI50,RPMI-8226,> 100 µM (inactive)
same,GI50,ACHN,> 100 µM (inactive)
same,GI50,Malme-3M,> 100 µM (inactive)
same,GI50,UACC-62,> 100 µM (inactive)
same,GI50,OVCAR-8,> 100 µM (inactive)
same,GI50,NCI/ADR-RES,71 µM (inactive)
same,GI50,EKVX,87.9 µM (inactive)
same,GI50,SK-MEL-2,> 100 µM (inactive)
same,GI50,Hs-578T,93.1 µM (inactive)
same,GI50,A498,> 100 µM (inactive)
same,GI50,HL-60,> 100 µM (inactive)
same,GI50,OVCAR-3,> 100 µM (inactive)
same,GI50,MOLT-4,> 100 µM (inactive)
same,GI50,SNB-19,> 100 µM (inactive)
same,GI50,CAKI-1,> 100 µM (inactive)
same,GI50,SF-295,> 100 µM (inactive)
same,GI50,OVCAR-5,> 100 µM (inactive)
same,GI50,NCI-H460,> 100 µM (inactive)
same,GI50,RXF 393,> 100 µM (inactive)
same,GI50,OVCAR-4,> 100 µM (inactive)
same,GI50,U-251,> 100 µM (inactive)
same,GI50,IGROV-1,> 100 µM (inactive)
same,GI50,KM12,76.7 µM (inactive)
same,GI50,MDA-MB-435,90.8 µM (inactive)
same,GI50,SW-620,> 100 µM (inactive)
same,GI50,A549,> 100 µM (inactive)
same,GI50,HCT-15,> 100 µM
same,GI50,SNB-75,70.3 µM (inactive)
same,GI50,K562,> 100 µM (inactive)
same,GI50,SF-539,> 100 µM (inactive)
same,GI50,UO-31,> 100 µM (inactive)
same,GI50,SN12C,> 100 µM (inactive)
same,GI50,T47D,> 100 µM (inactive)
same,GI50,HCT-116,> 100 µM (inactive)
same,GI50,HT-29,> 100 µM (inactive)
same,GI50,HCC 2998,> 100 µM (inactive)
CC(C)(C)[Si](C)(C)OCCc1ccccc1C1CC2(S(=O)(=O)c3ccccc3)ON1CC2S(=O)(=O)c1ccccc1 (stereo unspecified),GI50,SF-268,> 100 µM (inactive)
same,GI50,BT-549,> 100 µM (inactive)
same,GI50,SK-MEL-28,> 100 µM (inactive)
same,GI50,SK-OV-3,> 100 µM (inactive)
same,GI50,NCI-H23,> 100 µM (inactive)
same,GI50,SK-MEL-5,> 100 µM (inactive)
same,GI50,UACC-257,> 100 µM (inactive)
same,GI50,MDA-MB-231,> 100 µM (inactive)
same,GI50,HOP-62,> 100 µM (inactive)
same,GI50,M14,> 100 µM (inactive)
same,GI50,CCRF-CEM,> 100 µM (inactive)
same,GI50,MCF7,60.5 µM (inactive)
same,GI50,NCI-H226,> 100 µM (inactive)
same,GI50,786-0,> 100 µM (inactive)
same,GI50,TK-10,> 100 µM (inactive)
same,GI50,DU-145,> 100 µM (inactive)
same,GI50,COLO 205,> 100 µM (inactive)
same,GI50,MDA-N,> 100 µM (inactive)
same,GI50,ACHN,> 100 µM (inactive)
same,GI50,UACC-62,> 100 µM (inactive)
same,GI50,OVCAR-8,> 100 µM (inactive)
same,GI50,NCI/ADR-RES,> 100 µM (inactive)
same,GI50,EKVX,> 100 µM (inactive)
same,GI50,SK-MEL-2,> 100 µM (inactive)
same,GI50,Hs-578T,> 100 µM (inactive)
same,GI50,A498,> 100 µM (inactive)
same,GI50,OVCAR-3,> 100 µM (inactive)
same,GI50,MOLT-4,> 100 µM (inactive)
same,GI50,SNB-19,> 100 µM (inactive)
same,GI50,SF-295,> 100 µM (inactive)
same,GI50,OVCAR-5,> 100 µM (inactive)
same,GI50,NCI-H460,> 100 µM (inactive)
same,GI50,RXF 393,> 100 µM (inactive)
same,GI50,OVCAR-4,> 100 µM (inactive)
same,GI50,U-251,> 100 µM (inactive)
same,GI50,IGROV-1,> 100 µM (inactive)
same,GI50,KM12,> 100 µM (inactive)
same,GI50,MDA-MB-435,> 100 µM (inactive)
same,GI50,SW-620,> 100 µM (inactive)
same,GI50,A549,> 100 µM (inactive)
same,GI50,SNB-75,> 100 µM (inactive)
same,GI50,K562,> 100 µM (inactive)
same,GI50,SF-539,> 100 µM (inactive)
same,GI50,UO-31,> 100 µM (inactive)
same,GI50,SN12C,> 100 µM (inactive)
same,GI50,T47D,< 0.01 µM (active)
same,GI50,HCT-116,> 100 µM (inactive)
same,GI50,HT-29,> 100 µM (inactive)
same,GI50,HCC 2998,> 100 µM (inactive)
O=C(c1ccccn1)c1nnn2ccccc12,GI50,SF-268,> 100 µM (inactive)
same,GI50,BT-549,> 100 µM (inactive)
same,GI50,SK-MEL-28,> 100 µM (inactive)
same,GI50,SK-OV-3,> 100 µM (inactive)
same,GI50,NCI-H23,> 100 µM (inactive)
same,GI50,SK-MEL-5,> 100 µM (inactive)
same,GI50,UACC-257,> 100 µM (inactive)
same,GI50,MDA-MB-231,> 100 µM (inactive)
same,GI50,HOP-62,> 100 µM (inactive)
same,GI50,HOP-92,> 100 µM (inactive)
same,GI50,M14,> 100 µM (inactive)
same,GI50,LOX IMVI,> 100 µM (inactive)
same,GI50,CCRF-CEM,> 100 µM (inactive)
same,GI50,MCF7,> 100 µM (inactive)
same,GI50,NCI-H226,> 100 µM (inactive)
same,GI50,786-0,> 100 µM (inactive)
same,GI50,TK-10,> 100 µM (inactive)
same,GI50,DU-145,> 100 µM (inactive)
same,GI50,COLO 205,> 100 µM (inactive)
same,GI50,MDA-N,> 100 µM (inactive)
same,GI50,RPMI-8226,> 100 µM (inactive)
same,GI50,ACHN,> 100 µM (inactive)
same,GI50,Malme-3M,> 100 µM (inactive)
same,GI50,UACC-62,> 100 µM (inactive)
same,GI50,OVCAR-8,> 100 µM (inactive)
same,GI50,EKVX,> 100 µM (inactive)
same,GI50,SK-MEL-2,> 100 µM (inactive)
same,GI50,SR,> 100 µM (inactive)
same,GI50,Hs-578T,> 100 µM (inactive)
same,GI50,A498,> 100 µM (inactive)
same,GI50,HL-60,> 100 µM (inactive)
same,GI50,OVCAR-3,> 100 µM (inactive)
same,GI50,MOLT-4,> 100 µM (inactive)
same,GI50,SNB-19,> 100 µM (inactive)
same,GI50,CAKI-1,> 100 µM (inactive)
same,GI50,SF-295,> 100 µM (inactive)
same,GI50,OVCAR-5,> 100 µM (inactive)
same,GI50,NCI-H460,> 100 µM (inactive)
same,GI50,OVCAR-4,> 100 µM (inactive)
same,GI50,U-251,> 100 µM (inactive)
same,GI50,IGROV-1,> 100 µM (inactive)
same,GI50,NCI-H522,> 100 µM (inactive)
same,GI50,KM12,> 100 µM (inactive)
same,GI50,MDA-MB-435,> 100 µM (inactive)
same,GI50,SW-620,> 100 µM (inactive)
same,GI50,A549,> 100 µM (inactive)
same,GI50,HCT-15,> 100 µM
same,GI50,SNB-75,> 100 µM (inactive)
same,GI50,PC-3,> 100 µM (inactive)
same,GI50,K562,> 100 µM (inactive)
same,GI50,SF-539,> 100 µM (inactive)
same,GI50,SN12C,> 100 µM (inactive)
same,GI50,T47D,> 100 µM (inactive)
same,GI50,HCT-116,> 100 µM (inactive)
same,GI50,HT-29,> 100 µM (inactive)
same,GI50,HCC 2998,> 100 µM (inactive)

# From ChEMBL document CHEMBL1201862, “PubChem BioAssay data set” (2004)
